# Assay: High fat diet induced obesity (DIO) mouse model
# Type: in vivo, C57CL/6J mice
# Conditions: for NSAH (sum): liver pathology; for Total Body Weight: DIO mice (Table 52); for Total Body Weight / Body Weight: in g (unit assumed)
# Experimental: C57CL/6J mice aged 4-6 weeks (Korea Research Institute of Bioscience & Biotechnology, Ohchang, Korea) were housed in Polycarbonate cages (five mice per cage) in a room with a 12 hr:12 hr light-dark cycle and an ambient temperature of 24° C. All the mice were fed a commercial chow diet for 1 week after arrival in the animal facility. Mice were then divided into normal and obesity groups and fed with normal diet (ND) and high fat diets (HFD) respectively. The HFD group was divided into multiple treatment groups: a high fat diet vehicle group (HFD), an orlistat (purchased as OTC drug Alli®) positive control treatment group (ORI, 40 mg/kg of animal weight, 2 times/day) and optionally a sibutramine positive control treatment group (10 mg/kg, 1 time/day). The HFD contained 340 g of fat/kg of HFD (310 g lard plus 30 g soybean oil; Harlan Laboratories, USA). The HFD was formulated to provide 60% of the total energy generated by the diet from fat by replacing carbohydrate energy with lard and soybean oil, whereas the normal diet (ND) group was fed a diet providing only 18% of the total diet energy from fat(Harlan Laboratories, USA).
# Body weight was measured once each week and feed intake was measured twice per week. At the end of the experimental period, following a 12 hr. fasting period, the animals were anesthetized with ether, and blood was drawn from the abdominal vein. Liver and kidney and adipose tissues (epididymal, retroperitoneal, perirenal adipose tissues) were removed from each animal, rinsed with physiological saline, and weighed. Serum concentrations of glucose, total cholesterol, triglycerides, and LDL-cholesterol were determined using automatic analyzer (INTEGRA 400, Roche, Germany). Statistical significance of test results was measured using the Student's t-test.
# [1] = DIO mice blood biochemistry, SIB 10 mg/kg, ORI 40 mg/kg, Mutamba extract 32 (G1) 1000 mg/kg, mean
# [2] = DIO mice blood biochemistry, SIB 10 mg/kg, ORI 40 mg/kg, Mutamba extract 33-2 G1 1000 mg/kg, mean
# [3] = DIO mice liver pathology score, SIB 10 mg/kg, ORI 40 mg/kg, Mutamba extract 32 (G1) 1000 mg/kg, mean
# [4] = DIO mice, SIB 10 mg/kg, ORI 40 mg/kg, Mutamba extract 32 (G1) 1000 mg/kg, mean
# [5] = DIO mice, SIB 10 mg/kg, ORI 40 mg/kg, Mutamba extract 33-2 G1 1000 mg/kg, mean
# [6] = DIO mice, combination (1:1) 2000 mg/kg twice a day, group mean
# [7] = liver pathology score, mice fed a high fat diet, Mutamba fractions 250 mg/kg oral 2 times per day, mean
# [8] = liver pathology score, mice fed a high fat diet, Mutamba fractions 250 mg/kg oral 2 times per day, mean (table printed twice)
# [9] = mice fed a high fat diet, Mutamba fractions 250 mg/kg oral 2 times per day, mean
# [10] = sibutramine 10 mg/kg, 1 time/day
# [11] = sibutramine 10 mg/kg, 1 time/day, listed as Sibutramine
# [12] = week 1, mice fed a high fat diet, Mutamba fractions 250 mg/kg oral 2 times per day, mean
# [13] = week 2, mice fed a high fat diet, Mutamba fractions 250 mg/kg oral 2 times per day, mean
# [14] = week 3, mice fed a high fat diet, Mutamba fractions 250 mg/kg oral 2 times per day, mean
# [15] = week 4, mice fed a high fat diet, Mutamba fractions 250 mg/kg oral 2 times per day, mean
# [16] = week 5, mice fed a high fat diet, Mutamba fractions 250 mg/kg oral 2 times per day, mean
# [17] = week 6, mice fed a high fat diet, Mutamba fractions 250 mg/kg oral 2 times per day, mean
# [18] = week 7, mice fed a high fat diet, Mutamba fractions 250 mg/kg oral 2 times per day, mean
# [19] = week 8, mice fed a high fat diet, Mutamba fractions 250 mg/kg oral 2 times per day, mean
compound,measurement,setting,value
"CC(C)CC(N(C)C)C1(c2ccc(Cl)cc2)CCC1 (stereo not shown) [SIB, sibutramine]",ALT,[1],37.00 U/L
same,AST,[1],65.95 U/L
same,HDL-C,[1],68.73 mg/dL
same,LDL-C,[1],6.18 mg/dL
same,T-chol,[1],155.75 mg/dL
same,TG,[1],49.75 mg/dL
same,LDL-C,[2],5.26 mg/dL
same,T-chol,[2],158.60 mg/dL
same,TG,[2],46.60 mg/dL
same,Hepatocellular ballooning (0-2),[3],0.25
same,Lobular Inflammation (0-3),[3],0.50
same,Steatosis (0-3),[3],0.50
same,NASH (sum),"DIO mice liver pathology, sum of scores, SIB 10 mg/kg, ORI 40 mg/kg, Mutamba extract 32 (G1) 1000 mg/kg, mean",1.25
same,Weight Gain 2-week,"DIO mice, 2-week, Compositions 1, 2 1300 mg/kg/day, 3, 9 1700 mg/kg/day, orlistat 40 mg/kg 2 times/day, sibutramine 10 mg/kg 1 time/day",−1.40
same,Average Feed Intake 2-week,"DIO mice, 2-week, doses as in Example 76",2.87
same,Food Efficiency Ratio (FER) 2 weeks,"DIO mice, 2 weeks, Mean, Weight Gain (g/day)/Feed Intake (g/day)",−0.099
same,Weight Gain 7-week,"DIO mice, 7-week, Compositions 1, 2 1300 mg/kg/day, 3, 9 1700 mg/kg/day, orlistat 40 mg/kg 2 times/day, sibutramine 10 mg/kg 1 time/day",6.12
same,Average Feed Intake 7-week,"DIO mice, 7-week, doses as in Example 76",2.67
same,Food Efficiency Ratio (FER) 7 weeks,"DIO mice, 7 weeks, Mean, Weight Gain (g/day)/Feed Intake (g/day)",0.054
same,Food Efficiency Ratio (FER),"DIO mice, FER = body weight gain (g/day)/food intake (g/day), SIB 10 mg/kg, ORI 40 mg/kg, Mutamba extract 32 (G1) 1000 mg/kg, mean",0.008
same,Food Efficiency Ratio (FER),"DIO mice, FER = body weight gain (g/day)/food intake (g/day), SIB 10 mg/kg, ORI 40 mg/kg, Mutamba extract 33-2 G1 1000 mg/kg, mean",0.043
same,Average Body Weight Gain,[4],0.021 g/day
same,Average Food Intake,[4],2.724 g/day
same,Body Weight Gain,[5],0.114 g/day
same,Food Intake,[5],2.624 g/day
same,FER (Food efficiency ratio),"DIO mice, combination (1:1) 2000 mg/kg twice a day, FER = body weight gain/food intake",−0.014
same,Food Intake,[6],3.564 g/day
same,Weight Gain,[6],-0.051 g/day
same,Hepatocellular ballooning (0-2),[7],0.40
same,Lobular Inflammation (0-3),[7],1.60
same,Steatosis (0-3),[7],1.20
same,Hepatocellular ballooning (0-2),[8],0.40
same,Lobular Inflammation (0-3),[8],1.60
same,Steatosis (0-3),[8],1.20
same,NSAH (sum),"sum of scores, mice fed a high fat diet, Mutamba fractions 250 mg/kg oral 2 times per day, mean",3.20
same,NSAH (sum),"sum of scores, mice fed a high fat diet, Mutamba fractions 250 mg/kg oral 2 times per day, mean (table printed twice)",3.20
same,FER (Food efficiency ratio),"mice fed a high fat diet, FER = body weight gain (g/day)/food intake (g/day), Mutamba fractions 250 mg/kg oral 2 times per day, mean",0.043
same,Body Weight Gain,[9],0.114 g/day
same,Food Intake,[9],2.624 g/day
same,blood biochemistry parameters vs HFD group,[10],statistically significant decrease in LDL-cholesterol
same,body weight gain vs HFD group,[10],statistically significant decreases in body weight gain across all weeks of the study
same,liver pathology (NASH score) vs HFD group,[10],"statistically significant decreases in Steatosis, Lobular inflammation, Hepatocellular ballooning and NASH score"
same,total body weight vs HFD group,[10],"statistically significant decreases in total body weight from week 1, 2, 3 and 7"
same,"weight gain per day, food intake per day, food efficiency ratio (FER) vs HFD group",[10],average body weight gain per day and food efficiency ratio (FER) endpoints were significantly lowered
same,body weight gain vs HFD group,[11],did not
same,"weight gain per day, food intake per day, food efficiency ratio (FER) vs HFD group",[11],statistically significant reduction of average food intake after 7 weeks of treatment
same,"weight gain per day, food intake per day, food efficiency ratio (FER) vs HFD group","sibutramine 10 mg/kg, 1 time/day, listed as sibutramine",not statistically significant
same,Total Body Weight,"week 0, SIB 10 mg/kg",39.70
same,Body Weight,"week 0, mice fed a high fat diet, Mutamba fractions 250 mg/kg oral 2 times per day, mean",38.41
same,Body Weight Gain,"week 1, DIO mice, SIB 10 mg/kg, ORI 40 mg/kg, Mutamba extract 32 (G1) 1000 mg/kg/day oral, mean",−5.46
same,Body Weight Gain,"week 1, DIO mice, SIB 10 mg/kg, ORI 40 mg/kg, Mutamba extract 33-2 G1 1000 mg/kg, mean",−2.72
same,Weight Gain,"week 1, DIO mice, combination (1:1) 2000 mg/kg twice a day, group mean",−3.63
same,Weight Gain,"week 1, DIO mice, combination (10:1) 1100 mg/kg twice a day, group mean",−3.63
same,Total Body Weight,"week 1, SIB 10 mg/kg",34.24
same,Body Weight Gain,[12],−2.72
same,Body Weight,[12],35.69
same,Body Weight Gain,"week 2, DIO mice, SIB 10 mg/kg, ORI 40 mg/kg, Mutamba extract 32 (G1) 1000 mg/kg/day oral, mean",−4.84
same,Body Weight Gain,"week 2, DIO mice, SIB 10 mg/kg, ORI 40 mg/kg, Mutamba extract 33-2 G1 1000 mg/kg, mean",−2.39
same,Weight Gain,"week 2, DIO mice, combination (1:1) 2000 mg/kg twice a day, group mean",−5.37
same,Weight Gain,"week 2, DIO mice, combination (10:1) 1100 mg/kg twice a day, group mean",−5.37
same,Total Body Weight,"week 2, SIB 10 mg/kg",33.96
same,Body Weight Gain,[13],−2.39
same,Body Weight,[13],36.03
same,Body Weight Gain,"week 3, DIO mice, SIB 10 mg/kg, ORI 40 mg/kg, Mutamba extract 32 (G1) 1000 mg/kg/day oral, mean",−2.75
same,Body Weight Gain,"week 3, DIO mice, SIB 10 mg/kg, ORI 40 mg/kg, Mutamba extract 33-2 G1 1000 mg/kg, mean",−0.39
same,Weight Gain,"week 3, DIO mice, combination (1:1) 2000 mg/kg twice a day, group mean",−4.69
same,Weight Gain,"week 3, DIO mice, combination (10:1) 1100 mg/kg twice a day, group mean",−4.69
same,Total Body Weight,"week 3, SIB 10 mg/kg",36.05
same,Body Weight Gain,[14],−0.39
same,Body Weight,[14],38.02
same,Body Weight Gain,"week 4, DIO mice, SIB 10 mg/kg, ORI 40 mg/kg, Mutamba extract 32 (G1) 1000 mg/kg/day oral, mean",−2.17
same,Body Weight Gain,"week 4, DIO mice, SIB 10 mg/kg, ORI 40 mg/kg, Mutamba extract 33-2 G1 1000 mg/kg, mean",1.47
same,Weight Gain,"week 4, DIO mice, combination (1:1) 2000 mg/kg twice a day, group mean",−4.82
same,Weight Gain,"week 4, DIO mice, combination (10:1) 1100 mg/kg twice a day, group mean",−4.82
same,Total Body Weight,"week 4, SIB 10 mg/kg",36.64
same,Body Weight Gain,[15],1.47
same,Body Weight,[15],39.89
same,Body Weight Gain,"week 5, DIO mice, SIB 10 mg/kg, ORI 40 mg/kg, Mutamba extract 32 (G1) 1000 mg/kg/day oral, mean",−1.38
same,Body Weight Gain,"week 5, DIO mice, SIB 10 mg/kg, ORI 40 mg/kg, Mutamba extract 33-2 G1 1000 mg/kg, mean",2.54
same,Weight Gain,"week 5, DIO mice, combination (1:1) 2000 mg/kg twice a day, group mean",−4.25
same,Weight Gain,"week 5, DIO mice, combination (10:1) 1100 mg/kg twice a day, group mean",−4.25
same,Total Body Weight,"week 5, SIB 10 mg/kg",37.42
same,Body Weight Gain,[16],2.54
same,Body Weight,[16],40.95
same,Body Weight Gain,"week 6, DIO mice, SIB 10 mg/kg, ORI 40 mg/kg, Mutamba extract 32 (G1) 1000 mg/kg/day oral, mean",−0.27
same,Body Weight Gain,"week 6, DIO mice, SIB 10 mg/kg, ORI 40 mg/kg, Mutamba extract 33-2 G1 1000 mg/kg, mean",3.99
same,Weight Gain,"week 6, DIO mice, combination (1:1) 2000 mg/kg twice a day, group mean",−3.90
same,Weight Gain,"week 6, DIO mice, combination (10:1) 1100 mg/kg twice a day, group mean",−3.90
same,Total Body Weight,"week 6, SIB 10 mg/kg",38.54
same,Body Weight Gain,[17],3.99
same,Body Weight,[17],42.40
same,Body Weight Gain,"week 7, DIO mice, SIB 10 mg/kg, ORI 40 mg/kg, Mutamba extract 32 (G1) 1000 mg/kg/day oral, mean",−0.06
same,Body Weight Gain,"week 7, DIO mice, SIB 10 mg/kg, ORI 40 mg/kg, Mutamba extract 33-2 G1 1000 mg/kg, mean",5.15
same,Weight Gain,"week 7, DIO mice, combination (1:1) 2000 mg/kg twice a day, group mean",−2.27
same,Weight Gain,"week 7, DIO mice, combination (10:1) 1100 mg/kg twice a day, group mean",−2.27
same,Total Body Weight,"week 7, SIB 10 mg/kg",38.74
same,Body Weight Gain,[18],5.15
same,Body Weight,[18],43.57
same,Body Weight Gain,"week 8, DIO mice, SIB 10 mg/kg, ORI 40 mg/kg, Mutamba extract 32 (G1) 1000 mg/kg/day oral, mean",1.15
same,Body Weight Gain,"week 8, DIO mice, SIB 10 mg/kg, ORI 40 mg/kg, Mutamba extract 33-2 G1 1000 mg/kg, mean",6.27
same,Total Body Weight,"week 8, SIB 10 mg/kg",39.95
same,Body Weight Gain,[19],6.27
same,Body Weight,[19],44.69

# Reference: patent publication US20240024403A1, “Compositions and Methods for Managing Weight” (Unigen, Inc., priority 2012, published 2024)
